Laboratory results as given in ChEMBL document CHEMBL5154726, “Identification of triazolopyridine derivatives as a new class of AhR agonists and evaluation of anti-psoriasis effect in a mouse model” (Eur J Med Chem, 2022).
Active and inactive are the calls of the source. The rule behind the calls is not given here.

Assays:
[1] = Cytotoxicity against human BEAS-2B cells assessed as reduction in cell viability measured after 72 hrs by MTT assay; assay type: toxicity, cell-based
Mus musculus [2] = experiment: Anti-psoriatic activity in IMQ-induced BALB/c psoriasis mouse model assessed as reduction in IL-17a expression at 5 to 20 mg/kg, po by qRT-PCR analysis; assay type: functional, organism-based; details: dose 5-20 mg/kg
[3] = molecular target: T1, Aryl hydrocarbon receptor (Homo sapiens, UniProt P35869); experiment: Induction of Ahr signalling in human HaCaT cells assessed as upregulation of FLG expression incubated for 48 hrs; assay type: cell-based
T1 sequence (P35869 whole entry): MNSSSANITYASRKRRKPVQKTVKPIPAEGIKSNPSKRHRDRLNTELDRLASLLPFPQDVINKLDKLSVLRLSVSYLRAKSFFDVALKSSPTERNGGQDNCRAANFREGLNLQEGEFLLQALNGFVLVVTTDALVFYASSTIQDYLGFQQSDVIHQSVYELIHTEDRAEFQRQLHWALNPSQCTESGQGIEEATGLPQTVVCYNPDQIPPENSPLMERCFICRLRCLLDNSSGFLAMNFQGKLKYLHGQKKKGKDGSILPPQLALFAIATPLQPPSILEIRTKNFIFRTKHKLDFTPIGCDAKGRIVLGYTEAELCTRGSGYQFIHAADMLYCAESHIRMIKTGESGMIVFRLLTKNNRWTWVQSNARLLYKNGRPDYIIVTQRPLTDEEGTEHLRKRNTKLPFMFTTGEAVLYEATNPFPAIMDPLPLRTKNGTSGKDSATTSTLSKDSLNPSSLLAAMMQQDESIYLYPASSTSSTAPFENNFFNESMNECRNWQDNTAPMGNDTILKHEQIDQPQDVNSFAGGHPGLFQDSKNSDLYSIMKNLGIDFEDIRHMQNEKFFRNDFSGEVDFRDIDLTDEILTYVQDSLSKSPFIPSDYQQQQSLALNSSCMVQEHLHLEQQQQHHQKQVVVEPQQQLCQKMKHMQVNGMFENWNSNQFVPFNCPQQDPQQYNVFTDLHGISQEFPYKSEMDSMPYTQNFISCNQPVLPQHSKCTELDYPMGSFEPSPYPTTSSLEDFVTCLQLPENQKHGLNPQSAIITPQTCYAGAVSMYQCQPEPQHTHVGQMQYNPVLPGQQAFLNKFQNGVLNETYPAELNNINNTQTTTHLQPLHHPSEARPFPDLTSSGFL

[4] = Apparent permeability in MDCK cells at 50 uM incubated for 90 mins by LC/MS analysis; assay type: ADME, cell-based, Canis lupus familiaris; details: dog
[5] = molecular target: T1, Aryl hydrocarbon receptor; experiment: Agonist activity at AhR signalling in human HaCaT cells assessed as increase in CYP1A1 mRNA expression by qRT-PCR analysis; assay type: cell-based; details: 10 µM, DDE = dose-dependent effect
Cytochrome P450 2C19 = Cytochrome P450 2C19 (Homo sapiens, UniProt P33261); experiment: Inhibition of CYP2C19 in human liver microsomes in presence of NADPH by LC-MS/MS analysis; assay type: ADME, Microsome
Sequence of Cytochrome P450 2C19 (P33261 whole entry): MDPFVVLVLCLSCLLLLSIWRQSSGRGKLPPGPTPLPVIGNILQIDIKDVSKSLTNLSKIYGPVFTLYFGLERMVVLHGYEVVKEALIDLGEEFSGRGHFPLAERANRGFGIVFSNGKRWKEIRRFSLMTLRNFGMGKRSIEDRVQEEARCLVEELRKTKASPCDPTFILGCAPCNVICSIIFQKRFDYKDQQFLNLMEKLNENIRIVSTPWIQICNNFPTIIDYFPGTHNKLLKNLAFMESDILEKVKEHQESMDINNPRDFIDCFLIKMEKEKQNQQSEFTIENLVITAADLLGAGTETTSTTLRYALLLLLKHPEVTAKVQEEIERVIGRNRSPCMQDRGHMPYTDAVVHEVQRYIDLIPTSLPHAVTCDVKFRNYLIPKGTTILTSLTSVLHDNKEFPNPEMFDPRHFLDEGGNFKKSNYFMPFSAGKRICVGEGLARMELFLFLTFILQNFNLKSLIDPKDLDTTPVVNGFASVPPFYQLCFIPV

Mus musculus [6] = experiment: Anti-psoriatic activity in IMQ-induced BALB/c psoriasis mouse model assessed as reduction in IL-17f expression at 5 to 20 mg/kg, po by qRT-PCR analysis; assay type: functional, organism-based; details: dose 5-20 mg/kg
Mus musculus [7] = experiment: Anti-psoriatic activity in IMQ-induced BALB/c psoriasis mouse model assessed as reduction in IL-17f expression at 0.1 to 1 % treated topically by qRT-PCR analysis; assay type: functional, organism-based; details: dose 0.1-1 %
Mus musculus [8] = experiment: Anti-psoriatic activity in IMQ-induced BALB/c psoriasis mouse model assessed as reduction in erythema at 5 to 20 mg/kg, po by H and E staining based analysis; assay type: functional, organism-based; details: dose 5-20 mg/kg
[9] = Cytotoxicity against human LX2 cells assessed as reduction in cell viability measured after 72 hrs by MTT assay; assay type: toxicity, cell-based, LX-2
Mus musculus [10] = experiment: Anti-psoriatic activity in IMQ-induced BALB/c psoriasis mouse model assessed as reduction in scaling at 5 to 20 mg/kg, po by H and E staining based analysis; assay type: functional, organism-based; details: dose 5-20 mg/kg
[11] = molecular target: NAD(P)H dehydrogenase [quinone] 1 (Homo sapiens) (UniProt P15559); experiment: Activation of NQO1 expression in human HaCaT cells up to 10 uM by qRT-PCR analysis; assay type: cell-based; details: filed as activator
Sequence of NAD(P)H dehydrogenase [quinone] 1 (Homo sapiens) (P15559 whole entry): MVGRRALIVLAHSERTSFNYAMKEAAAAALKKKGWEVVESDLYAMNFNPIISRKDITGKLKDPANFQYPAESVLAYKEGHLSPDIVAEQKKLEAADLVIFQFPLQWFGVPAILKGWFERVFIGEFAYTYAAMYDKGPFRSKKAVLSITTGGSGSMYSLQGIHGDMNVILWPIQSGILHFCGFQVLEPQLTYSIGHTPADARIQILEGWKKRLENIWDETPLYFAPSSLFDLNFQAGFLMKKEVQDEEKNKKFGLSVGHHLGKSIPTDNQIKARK

[12] = Oral bioavailability in Sprague-Dawley rat at 10 mg/kg measured up to 24 hrs by LC-MS/MS analysis; assay type: ADME, organism-based; details: in vivo
[13] = AUC (0 to infinity) in Sprague-Dawley rat at 5 mg/kg, iv measured up to 24 hrs by LC-MS/MS analysis; assay type: ADME, organism-based; parameters: dose 5 mg/kg, time < 24 hrs, route iv; details: in vivo
[14] = Cytotoxicity against human HUVEC cells assessed as reduction in cell viability measured after 72 hrs by MTT assay; assay type: toxicity, cell-based
[15] = molecular target: T1, Aryl hydrocarbon receptor; experiment: Agonist activity at AhR in human recombinant HepG2-Lucia AhR cell incubated for 24 hrs by luciferase reporter gene assay; assay type: cell-based
[16] = Half life in Sprague-Dawley rat at 5 mg/kg, iv measured up to 24 hrs by LC-MS/MS analysis; assay type: ADME, organism-based; details: in vivo
[17] = Half life in Sprague-Dawley rat at 10 mg/kg, po measured up to 24 hrs by LC-MS/MS analysis; assay type: ADME, organism-based; details: in vivo
[18] = Tmax in Sprague-Dawley rat at 10 mg/kg, po measured up to 24 hrs by LC-MS/MS analysis; assay type: ADME, organism-based; details: in vivo
[19] = n-Octanol/water partition coefficient, logD of the compound at 1 mg incubated for 48 hrs under shaking condition by LC/MS analysis; assay type: physicochemical
[20] = Cytotoxicity against HEK293T cells assessed as reduction in cell viability measured after 72 hrs by MTT assay; assay type: toxicity, cell-based, HEK-293T; details: human
[21] = AUC (0 to t) in Sprague-Dawley rat at 5 mg/kg, iv measured up to 24 hrs by LC-MS/MS analysis; assay type: ADME, organism-based; parameters: dose 5 mg/kg, time < 24 hrs, route iv; details: in vivo

## Brc1ccc(-c2nc3ccc(Br)cn3n2)cc1
[1]
  IC50 at 72 h: > 300 µM
Mus musculus [2]
  Activity: Active
[3]
  Activity: Active
[4]
  Papp at 1.5 h, 50 µM: 34.9 nm/s
[5]
  Activity: Dde
Cytochrome P450 2C19
  IC50: > 10 µM
Mus musculus [6]
  Activity: Active
Mus musculus [7]
  Activity: Active
Mus musculus [8]
  Activity: Active
[9]
  IC50 at 72 h: > 300 µM
Mus musculus [10]
  Activity: Active
[11]
  Activity: Active
[12]
  bioavailability: 15.1%
[13]
  AUC(0-inf): 4.64 µg·h/mL
[14]
  IC50 at 72 h: > 300 µM
[15]
  EC50: 0.03 nM
[16]
  half-life: 48.6 min
[17]
  half-life: 418 min
[18]
  Tmax: 49.8 min
[19]
  logD at 48 h: 2.97
[20]
  IC50 at 72 h: > 300 µM
[21]
  AUC(0-t) at 24 h: 4.64 µg·h/mL
